From patent US20130281405A1, “USE OF PC-NSAIDS TO TREAT AND/OR PREVENT PULMONARY INFLAMMATION” (priority 2012, published 2013)

What was measured:
[1] = tested on: O3-induced pulmonary inflammation; assay: O3-induced pulmonary inflammation model, parenteral administration, BALF analysis; assay type: in vivo, mice; conditions: 10 mg/kg, BALF 24 h post exposure, FIG. 2, pilot study
Procedure: Using the O3-induced pulmonary inflammation model, we have evaluated and compared the anti-inflammatory efficacy of PC-Indomethacin vs indomethacin administered parenterally at a dose of 10 mg/kg vs vehicle control and evaluated the BALF 24 h post exposure. The white cell counts and protein concentrations of the BALF of the test groups are depicted in FIG. 2.

[2] = tested on: O3-induced pulmonary inflammation; assay: O3-induced lung injury/pulmonary inflammation model, endotracheal administration, BALF analysis; assay type: in vivo, mice
Procedure: Because of the clinical relevance of environmental ozone exposure, and the experience of our team, with the murine model of O3-induced LI, pulmonary inflammation, and/or AHR, we have evaluated the anti-inflammatory efficacy of our PC-NSAID formulations using this robust model system. In these studies, all mice were pre-dosed (via endotracheal administration) with vehicle, indomethacin (at a dose range from 2 mg/kg), ibuprofen (5 mg/kg) or the equivalent (NSAID) doses of the PC-NSAID compositions, 1 h before and 1.5 hours after being exposed to either filtered room air or O3 (2 ppm) for 3 h and then 6 h or 24 h following the cessation of exposure airway pulmonary injury and inflammation were assessed by euthanizing the animals and collecting bronchoalveolar lavage fluid (BALF) using standard techniques. The O3 exposure protocol were chosen to allow for comparison with data of other investigators studying acute O3-induced pulmonary inflammation/AHR in mice.
In these studies, all mice were pre-dosed with vehicle (PBS), NSAID (indomethacin or ibuprofen) (at a dose of 2 mg NSAID/kg), or the equivalent (NSAID) dose of the corresponding PC-NSAID composition using an endo-tracheal delivery method refined that we refined (25 μL/rat) 1 h before and 90 minutes after being exposed to either filtered room air or O3 (2 ppm) for 3 h. The PC-Indomethacin composition was prepared dissolving indomethacin and purified PC (Phospholipon 90G from Lipoid) in a polar solvent (such as acetone), followed by vacuum removal of the solvent to form a purified PC-NSAID oil composition. This purified PC-NSAID oil composition is then added to an amount of phosphate buffered saline (PBS) followed by 30 minutes of sonication to provide a uniform composition at the appropriate dose for intra-tracheal administration. In some experiments, we prepared the PC-Indomethacin composition using Lipoid S-100 (a highly purified >98% soy PC product, as recommended by the manufacturer) instead of Phospholipon 90G, as well as comparing the effects of the purified soy PC products (S-100 and 90G) alone. […] Twenty-four hours (24 h) following the cessation of O3 exposure, pulmonary injury and inflammation were assessed by euthanizing the animals and collecting bronchoalveolar lavage (BALE) fluid using standard techniques. The collected BALF samples were centrifuged (with the cell pellet analyzed for white cells) and the supernatant analyzed for protein and prostaglandin E2, all markers of pulmonary inflammation.
The concentration of total BALF protein has been determined spectrophotometrically according to the Bradford protein assay procedure (Bio-Rad Laboratories, Inc.; Hercules, Calif.) while the levels of IL-6, MIP-2, PGE2 in the BALF are determined using a commercially available ELISA kit (Immunology Consultants Laboratories, Inc., Newberg, Oreg.), and MPO activity (by enzymatic kit provided CytoStore) in accordance to the manufacturer's instructions. Pulmonary inflammation has been determined by assessing the BALF cell differentials on Cytospin cytocentrifuge preparations. Hemoglobin has been measured by the benzidine assay.
We used a modification the protocol employed in pilot studies. In these earlier experiments, mice were pre-dosed with phosphate buffered saline (PBS) vehicle, the test NSAID (indomethacin or ibuprofen) (at a dose of 2 mg or 5 mg NSAID/kg), PC (4 mg/k or 10 mg/kg), respectively, or the equivalent (NSAID) dose of the PC-NSAID complex using an endotracheal delivery method refined in our lab (25 μL/rat) 1 h before and 90 minutes after being exposed to either filtered room air or O3 (2 ppm) for 3 h.

[3] = Storage stability of PC-NSAID oil and reconstituted dispersions; assay type: physicochemical; conditions: dispersed in sodium bicarbonate buffer, stored at 4° C., FIG. 8
Procedure: The proprietary method used to prepare the purified PC-NSAIDs takes advantage of the fact that pre-dissolving indomethacin (or ibuprofen) in acetone beforehand markedly increases the solubility of PC in this polar solvent (normally PC has a very limited solubility in acetone). Thereby the NSAID and purified soy PC (Lipoid S-100) (1:1 PC to NSAID molar ratio, which correspond to 2:1 PC to NSAID weight ratio) are dissolved in acetone, in this order and incubated at 40° C. until the solution clarifies. This solution is then placed in a rotor-evaporator for at least 12 hours to remove the volatile solvent. In the case of disaturated PC, such as dipalmitoyl-PC (DPPC) (which is the major phospholipid in pulmonary surfactant) we have learned that it is important to have 2-4 times more NSAID than PC (on a molar basis) to drive the solubility of the DPPC into the polar solvent. […] With the advice of the soy lecithin manufacturer (Lipoid Inc., Heidelberg, Germany) we are transitioning to their more purified soy lecithin product (Lipoid S-100) which already is approved for parenteral administration. […] FIGS. 10-13 indicate that these PC-NSAID formulations can readily be aerosolized into particles having a diameter between 2-6 μm for deep lung deposition.

[4] = ozone-exposed mice (2 ppm, 3 h), endotracheal dosing 1 h before and 90 min after, BALF 24 h post-exposure, *=p<0.05 vs air

In the case of `COc1ccc2c(c1)c(CC(=O)O)c(C)n2C(=O)c1ccc(Cl)cc1` [Indomethacin, indomethacin], the “white cell counts and protein concentrations of the BALF (index of O3-induced pulmonary inflammation)” value [1] is reported as “appeared to inhibit”, the “white cell count in BALF, effect in words” value ([2]; O3-exposed mice, endotracheal, BALF 24 h post, FIG. 3 (indomethacin), FIG. 9A (ibuprofen, PC is DPPC)) is reported as “increased white cell count relative to vehicle” and the “protein concentration of BALF, effect in words” value ([2]; O3-exposed mice, endotracheal, BALF 24 h post, FIG. 4 (indomethacin), FIG. 9B (ibuprofen, PC is DPPC)) is reported as “did not cause a similar effect”. For the same molecule, the “PGE2 concentration in BALF, effect in words” value ([2]; O3-exposed mice, endotracheal, FIG. 6 (indomethacin), FIG. 9D (ibuprofen, PC is DPPC)) was “statistically significant effect to markedly inhibit”, the “BALF Cell Number” value [2, 4] was 163 ± 53* and the “BALF MPO” value [2, 4] was 2.12 ± 0.43* ng/mL. For the same molecule, the “BALF PGE2” value [2, 4] was 274 ± 141 pg/mL, the “BALF Protein” value [2, 4] was 796 ± 135* μg/mL and the “stability in sodium bicarbonate buffer” value [3] was “degrades over time”.
